# According to patent publication US20250144067A1, “PERSONALIZED STARVATION THERAPY FOR CANCER” (Faeth Therapeutics, Inc., priority 2021, published 2025):
# Structures can show the parent of a compound that is named as a salt. Where two headings read alike, the source gives them in different places. Ends that are not written are not given here. Peptide text beside a SMILES is read from it.
# Experiments:
# [1] = test system: NCI-H292 lung cancer cells; assay: FDA drug screening, complete media vs cholesterol-free media without statin (TABLE 1); assay type: cell-based, human
# [2] = test system: NCI-H292 lung cancer cells; assay: FDA drug screening, complete media vs cholesterol-free media with simvastatin (TABLE 2); assay type: cell-based, human
# [3] = NCI-H292 cells, cholesterol-free media without statin
# [4] = complete vs cholesterol-free media, greater than 0 enhanced anti-cancer activity, about 0 neutral, below 0 antagonists
# [5] = NCI-H292 cells, FDA drug library screen, cholesterol-free media with simvastatin 0.04 μM
# [6] = NCI-H292 cells, FDA drug library screen, complete media
# [7] = complete media vs cholesterol-free media + simvastatin (0.04 μM), >0 enhanced anti-cancer activity, about 0 neutral, <0 antagonist
# [8] = Complete minus Cholesterol-free, greater than 0 enhanced anti-cancer activity, about 0 neutral, below 0 antagonists
# [9] = NCI-H292 cells in cholesterol-free media without statin
# [10] = NCI-H292 cells in complete media
# [11] = NCI-H292 cells, FDA library drug in cholesterol-free media with simvastatin 0.04 μM
# [12] = NCI-H292 cells, FDA library drug in complete media
# [13] = NCI-H292 cells, cholesterol-free media without statin, FDA drug library screen
# [14] = NCI-H292 cells, complete media, FDA drug library screen
# [15] = NCI-H292 cells, complete media, FDA drug library screen (TABLE 2)
# [16] = Complete minus Cholesterol-free, […]
# [17] = complete media minus cholesterol-free media + simvastatin, […]
# [18] = complete media minus cholesterol-free media + simvastatin, >0 enhanced anti-cancer activity, about 0 neutral, <0 antagonist
# [19] = NCI-H292 cells, drug in cholesterol-free media with simvastatin 0.04 μM
# [20] = NCI-H292 cells, drug in complete media
# [21] = Complete minus Cholesterol-free, >0 enhanced anti-cancer activity, about 0 neutral, <0 antagonist
# [22] = Complete minus Cholesterol-free, greater than 0 enhanced anti-cancer activity, about 0 neutral, below 0 antagonist
# [23] = NCI-H292 cells, FDA drug library screen, cholesterol-free media without statin
# [24] = NCI-H292 cells, cholesterol-free media with simvastatin 0.04 μM, cell growth value in FDA drug screen
# [25] = NCI-H292 cells, complete media, cell growth value in FDA drug screen
compound,measurement,setting,value
CN1CC(=O)N2[C@H](c3ccc4c(c3)OCO4)c3[nH]c4ccccc4c3C[C@@H]2C1=O [Tadalafil],Cholesterol-free,[1]; [3],1.298
same,Complete,"[1]; NCI-H292 cells, complete media",0.971
same,Difference,[1]; [4],−0.33
same,Cholesterol-free media + simvastatin (0.04 μM),[2]; [5],1.05
same,Complete Media,[2]; [6],0.9711
same,Difference,[2]; [7],−0.08
c1cnc2cc3c(cc2n1)[C@@H]1CNC[C@H]3C1 [Varenicline],Difference,[1]; [8],−0.54
same,Cholesterol-free,[1]; [9],1.353
same,Complete,[1]; [10],0.8146
same,Cholesterol-free media + simvastatin (0.04 μM),[2]; [11],1.359
same,Complete Media,[2]; [12],1.033
same,Difference,[2]; [7],−0.33
Rucaparib (phosphate),Cholesterol-free,[1]; [13],0.6538
same,Complete,[1]; [14],0.9448
same,Difference,"[1]; complete vs cholesterol-free media, >0 enhanced anti-cancer activity, about 0 neutral, <0 antagonist",0.29
same,Complete Media,[2]; [15],1.39
same,Difference,"[2]; complete media minus cholesterol-free media + simvastatin (0.04 μM), >0 enhanced anti-cancer activity, about 0 neutral, <0 antagonist",−0.02
"Angiotensin II human (acetate) (DRVYIHPF; also: acetate salt; UniProt P01019 25-32, looked up)",Difference,[1]; [16],−0.23
same,Cholesterol-free,[1]; [3],0.9412
same,Complete,"[1]; NCI-H292 cells, complete media",0.7158
same,Complete Media,[2]; [6],1.355
same,Difference,[2]; [17],0.21
O=C(O[C@@H]1C[C@@H]2C[C@H]3C[C@H](C1)N2CC3=O)c1c[nH]c2ccccc12 [Dolasetron (Mesylate hydrate)],Cholesterol-free,[1]; [3],1.287
same,Complete,"[1]; NCI-H292 cells, complete media",0.8444
same,Difference,[1]; [4],−0.44
same,Cholesterol-free media + simvastatin (0.04 μM),[2]; [5],1.31
same,Complete Media,[2]; [6],1.817
same,Difference,[2]; [18],0.51
N[C@@H]1CONC1=O [D-Cycloserine],Cholesterol-free,[1]; [3],1.516
same,Difference,[1]; [4],−0.37
same,Cholesterol-free media + simvastatin (0.04 μM),[2]; [19],1.193
same,Complete Media,[2]; [20],1.005
same,Difference,[2]; [7],−0.19
Nc1cc(-c2ccncc2)c[nH]c1=O [Amrinone],Difference,[1]; [8],−0.48
same,Cholesterol-free,[1]; [9],1.339
same,Complete,[1]; [10],0.861
same,Cholesterol-free media + simvastatin (0.04 μM),[2]; [19],1.157
same,Complete Media,[2]; [20],0.9441
same,Difference,[2]; [7],−0.21
C#CCN[C@H]1CCc2ccccc21 [(S)-Rasagiline],Difference,[1]; [21],0.05
same,Cholesterol-free,[1]; [13],1.001
same,Complete,[1]; [14],1.048
same,Cholesterol-free media + simvastatin (0.04 μM),[2]; [11],1.283
same,Complete Media,[2]; [12],0.8996
same,Difference,[2]; [7],−0.38
O=C(O)[C@H]1O[C@@H](Oc2cc3oc(-c4ccccc4)cc(=O)c3c(O)c2O)[C@H](O)[C@@H](O)[C@@H]1O [Baicalin],Difference,[1]; [21],−0.04
same,Cholesterol-free,[1]; [13],1.064
same,Complete,[1]; [14],1.025
same,Cholesterol-free media + simvastatin (0.04 μM),[2]; [19],1.298
same,Complete Media,[2]; [20],1.093
same,Difference,[2]; [7],−0.20
COC(=O)C1=C(C)NC(C)=C(C(=O)OC(C)(C)CN(C)CCC(c2ccccc2)c2ccccc2)C1c1cccc([N+](=O)[O-])c1 (centres unmarked) [Lercanidipine (hydrochloride)],Difference,[1]; [22],−0.18
same,Cholesterol-free,[1]; [23],0.8895
same,Complete,[1]; [6],0.7061
same,Cholesterol-free media + simvastatin (0.04 μM),[2]; [24],0.8086
same,Complete Media,[2]; [25],0.8565
same,Difference,[2]; [18],0.05
CCCCCCCCCCCC[N+](C)(C)CCOc1ccccc1.[Br-] [Domiphen (bromide)],Cholesterol-free,[1],−0.0357
same,Complete,[1],0.01628
same,Difference,[1],0.05
same,Cholesterol-free media + simvastatin (0.04 μM),[2],0.01614
same,Complete Media,[2],−0.0427
same,Difference,[2],−0.06
Cc1ncc([N+](=O)[O-])n1CC(O)CN1CCOCC1 (centres unmarked) [Morinidazole],Cholesterol-free,[1]; [3],1.15
same,Complete,"[1]; NCI-H292 cells, complete media",0.8164
same,Difference,[1]; [4],−0.33
same,Cholesterol-free media + simvastatin (0.04 μM),[2]; [5],1.535
same,Complete Media,[2]; [6],1.676
same,Difference,[2]; [18],0.14
"COC1=CC(=O)OC(/C=C/c2ccccc2)C1 (single isomer, unassigned; (+)) [(+)-Kavain]",Difference,[1]; [16],−0.08
same,Cholesterol-free,[1]; [23],1.138
same,Complete,[1]; [6],1.054
same,Cholesterol-free media + simvastatin (0.04 μM),"[2]; NCI-H292 cells, cholesterol-free media with simvastatin 0.04 μM, […]",1.009
same,Complete Media,"[2]; NCI-H292 cells, complete media, […]",1.093
same,Difference,[2]; [17],0.08
CC(C)(CO)[C@H](O)C(=O)NCCC(=O)O.[Na] [D-Pantothenic acid (sodium)],Difference,[1]; [21],−0.03
same,Cholesterol-free,[1]; [13],1.02
same,Complete,[1]; [14],0.9879
same,Cholesterol-free media + simvastatin (0.04 μM),[2]; [19],1.102
same,Complete Media,[2]; [20],0.858
same,Difference,[2]; [7],−0.24
Nc1[nH]c(=O)ncc1F [Flucytosine],Cholesterol-free,[1]; [3],1.247
same,Complete,"[1]; NCI-H292 cells, complete media",0.8456
same,Difference,[1]; [4],−0.40
same,Cholesterol-free media + simvastatin (0.04 μM),[2]; [11],1.754
same,Complete Media,[2]; [12],1.475
same,Difference,[2]; [7],−0.28
CN(C)[C@@H]1C(O)=C(C(N)=O)C(=O)[C@@]2(O)C(O)=C3C(=O)c4c(O)c(NC(=O)CN5CCCC5)cc(F)c4C[C@H]3C[C@@H]12 [Eravacycline (dihydrochloride)],Cholesterol-free,[1]; [13],0.2139
same,Complete,[1]; [14],0.4019
same,Difference,"[1]; complete vs cholesterol-free media, […]",0.19
same,Cholesterol-free media + simvastatin (0.04 μM),"[2]; NCI-H292 cells, cholesterol-free media with simvastatin 0.04 μM, FDA drug library screen (TABLE 2)",0.8088
same,Complete Media,[2]; [15],0.7999
same,Difference,"[2]; complete media minus cholesterol-free media + simvastatin (0.04 μM), […]",−0.01
CC(=O)NCCCCCC(=O)O [6-Acetamidohexanoic acid],Cholesterol-free,[1]; [3],1.348
same,Complete,"[1]; NCI-H292 cells, complete media",1.01
same,Difference,[1]; [4],−0.34
same,Cholesterol-free media + simvastatin (0.04 μM),[2]; [19],1.04
same,Complete Media,[2]; [20],0.7847
same,Difference,[2]; [7],−0.26
CC(=O)NS(=O)(=O)c1ccc(NC(=O)c2ccccc2C(=O)O)cc1 [Phthalylsulfacetamide],Difference,[1]; [21],−0.29
same,Cholesterol-free,[1]; [3],1.274
same,Complete,"[1]; NCI-H292 cells, complete media",0.9792
same,Cholesterol-free media + simvastatin (0.04 μM),[2]; [11],1.031
same,Complete Media,[2]; [12],0.7098
same,Difference,[2]; [7],−0.32
Nc1ccc(S(=O)(=O)c2ccc(N)cc2)cc1 [Dapsone],Difference,[1]; [8],−0.48
same,Cholesterol-free,[1]; [9],1.475
same,Complete,[1]; [10],0.9984
same,Cholesterol-free media + simvastatin (0.04 μM),[2]; [5],0.9689
same,Complete Media,[2]; [6],1.132
same,Difference,[2]; [18],0.16
CO/N=C(\C(=O)N[C@@H]1C(=O)N2C(C(=O)OCOC(=O)C(C)(C)C)=C(/C=C\c3scnc3C)CS[C@H]12)c1csc(N)n1 [Cefditoren (Pivoxil)],Difference,[1]; [21],−0.05
same,Cholesterol-free,[1]; [13],1.012
same,Complete,[1]; [14],0.9665
same,Cholesterol-free media + simvastatin (0.04 μM),[2]; [24],0.7736
same,Complete Media,[2]; [25],0.8262
same,Difference,[2]; [18],0.05
Cc1cnc(C(=O)NCCc2ccc(S(=O)(=O)NC(=O)NC3CCCCC3)cc2)cn1 [Glipizide],Cholesterol-free,[1]; [3],1.844
same,Complete,"[1]; NCI-H292 cells, complete media",1.46
same,Difference,[1]; [4],−0.38
same,Cholesterol-free media + simvastatin (0.04 μM),[2]; [19],1.42
same,Complete Media,[2]; [20],1.2
same,Difference,[2]; [7],−0.22
"NCCCC[C@H](NC(=O)[C@@H]1CCCN1C(=O)[C@@H]1CSSC[C@H](N)C(=O)N[C@@H](Cc2ccccc2)C(=O)N[C@@H](Cc2ccccc2)C(=O)N[C@@H](CCC(N)=O)C(=O)N[C@@H](CC(N)=O)C(=O)N1)C(=O)NCC(N)=O [Felypressin] (HELM PEPTIDE1{C.F.F.Q.N.C.P.K.G.[am]}$PEPTIDE1,PEPTIDE1,1:R3-6:R3$$$V2.0)",Cholesterol-free,[1],0.991
same,Complete,[1],0.8009
same,Difference,[1],−0.19
same,Cholesterol-free media + simvastatin (0.04 μM),[2],1.091
same,Complete Media,[2],0.9792
same,Difference,[2],−0.11
CS(=O)(=O)c1cccc(C[C@H](NC(=O)c2c(Cl)cc3c(c2Cl)CCN(C(=O)c2ccc4ccoc4c2)C3)C(=O)O)c1 [Lifitegrast],Difference,[1]; [22],−0.15
same,Cholesterol-free,[1]; [23],1.11
same,Complete,[1]; [6],0.9552
same,Cholesterol-free media + simvastatin (0.04 μM),[2]; [5],1.009
same,Complete Media,[2]; [6],0.8652
same,Difference,[2]; [7],−0.14
O=C(O)CCCN1CCC(O[C@@H](c2ccc(Cl)cc2)c2ccccn2)CC1 [Bepotastine (besilate)],Cholesterol-free,[1]; [3],1.237
same,Complete,"[1]; NCI-H292 cells, complete media",0.8985
same,Difference,[1]; [4],−0.34
same,Cholesterol-free media + simvastatin (0.04 μM),[2]; [11],1.245
same,Complete Media,[2]; [12],0.8639
same,Difference,[2]; [7],−0.38
COc1ccc(Cl)cc1C(=O)NCCc1ccc(S(=O)(=O)NC(=O)NC2CCCCC2)cc1 [Glibenclamide],Difference,[1]; [8],−0.64
same,Complete,[1]; [10],0.9798
same,Cholesterol-free media + simvastatin (0.04 μM),[2]; [5],1.112
same,Complete Media,[2]; [6],0.9567
same,Difference,[2]; [7],−0.16
CS(=O)(=O)Nc1cc2occ(NC=O)c(=O)c2cc1Oc1ccccc1 [Iguratimod],Cholesterol-free,[1]; [3],1.252
same,Complete,"[1]; NCI-H292 cells, complete media",0.9044
same,Difference,[1]; [4],−0.35
same,Cholesterol-free media + simvastatin (0.04 μM),[2]; [11],1.717
same,Complete Media,[2]; [12],1.252
same,Difference,[2]; [7],−0.47
N=C(N)NCCC[C@H](N)C(=O)O [L-Arginine],Cholesterol-free,[1],0.984
same,Complete,[1],1.115
same,Difference,[1],0.13
same,Cholesterol-free media + simvastatin (0.04 μM),[2],1.189
same,Complete Media,[2],1.484
same,Difference,[2],0.29
